Laboratory results: ChEMBL document CHEMBL1125250 (J Med Chem, 1991)

What was measured:
Aromatase = molecular target: T1, Aromatase (Rattus norvegicus, UniProt P22443)
T1 sequence (P22443 whole entry): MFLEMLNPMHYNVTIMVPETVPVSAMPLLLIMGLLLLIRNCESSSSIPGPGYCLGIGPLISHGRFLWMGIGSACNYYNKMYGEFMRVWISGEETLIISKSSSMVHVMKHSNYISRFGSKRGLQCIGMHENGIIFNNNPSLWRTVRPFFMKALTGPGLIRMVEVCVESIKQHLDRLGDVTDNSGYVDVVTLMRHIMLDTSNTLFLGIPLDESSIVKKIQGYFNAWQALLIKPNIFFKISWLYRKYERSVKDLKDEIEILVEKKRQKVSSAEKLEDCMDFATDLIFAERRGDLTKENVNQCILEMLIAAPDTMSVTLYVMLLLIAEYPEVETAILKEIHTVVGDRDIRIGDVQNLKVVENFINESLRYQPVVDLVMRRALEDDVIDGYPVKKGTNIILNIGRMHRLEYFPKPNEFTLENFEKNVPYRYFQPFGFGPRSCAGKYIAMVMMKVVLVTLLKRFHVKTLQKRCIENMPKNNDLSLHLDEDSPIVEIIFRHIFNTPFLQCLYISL

[1] = molecular target: T2, Cholesterol side-chain cleavage enzyme, mitochondrial (Homo sapiens, UniProt P05108); assay type: functional, Cricetulus griseus
T2 sequence (P05108 whole entry): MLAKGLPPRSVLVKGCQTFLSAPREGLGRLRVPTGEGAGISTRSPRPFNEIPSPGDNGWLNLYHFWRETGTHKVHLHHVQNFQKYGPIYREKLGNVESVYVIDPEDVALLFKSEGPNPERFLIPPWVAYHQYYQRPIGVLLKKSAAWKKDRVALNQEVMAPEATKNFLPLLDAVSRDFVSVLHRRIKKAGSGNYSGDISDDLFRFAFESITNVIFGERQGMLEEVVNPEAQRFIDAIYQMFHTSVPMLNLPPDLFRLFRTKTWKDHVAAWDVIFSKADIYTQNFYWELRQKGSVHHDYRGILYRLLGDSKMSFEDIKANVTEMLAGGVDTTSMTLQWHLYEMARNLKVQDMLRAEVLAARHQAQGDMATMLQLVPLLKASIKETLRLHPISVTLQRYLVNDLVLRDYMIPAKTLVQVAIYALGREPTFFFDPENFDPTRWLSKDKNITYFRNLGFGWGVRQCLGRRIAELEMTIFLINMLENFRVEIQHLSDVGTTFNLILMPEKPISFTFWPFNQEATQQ

Row | SMILES | EDmin (Aromatase) [µM/kg] | IC50 [1] [µM]
1 | CCOC(=O)c1ccc(C2CCCc3cncn32)cc1.Cl (centres undefined) | > 10 | –
2 | Brc1ccc(C2CCCc3cncn32)cc1.Cl (centres undefined) | 0.5 | –
3 | OCc1ccc(C2CCCc3cncn32)cc1 (centres undefined) | 0.5 | –
4 | CCC1(c2ccc(N)cc2)CCC(=O)NC1=O (centres undefined) [AMINOGLUTETHIMIDE] | – | 80
